Measurements as given in ChEMBL document CHEMBL1153705, “Evaluation and optimization of antifibrotic activity of cinnamoyl anthranilates” (Bioorg Med Chem Lett, 2009).
Calls of active or inactive are those of the source. The calls are words filed in the database; no cut-off is given here.

Columns and labels:
Rattus norvegicus [1] = organism: Rattus norvegicus; test: (§1) Antifibrotic activity in rat 1097 cells assessed as inhibition of TGF-beta-stimulated [3H]proline incorporation in to collagen at 100 uM; type: functional
[2] = as §1; type: functional
[3] = Antifibrotic activity in rat 1097 cells assessed as inhibition of TGF-beta-stimulated [3H]proline incorporation in to collagen at 30 uM; type: functional
[4] = Toxicity against rat 1097 cells at 100 uM; type: cell-based
[5] = Toxicity against rat 1097 cells at 30 uM; type: cell-based
1097 [6] = test: Antifibrotic activity in rat 1097 cells assessed as necrotic cells at 30 uM; type: functional, cell-based
1097 [7] = test: Antifibrotic activity in rat 1097 cells assessed as necrotic cells at 100 uM; type: functional, cell-based
Rattus norvegicus [8] = organism: Rattus norvegicus; test: Antifibrotic activity in rat 1097 cells assessed as damaged cells at 100 uM; type: functional, cell-based
[9] = Antifibrotic activity in rat 1097 cells assessed as inhibition of TGF-beta-stimulated [3H]proline incorporation in to collagen at 10 uM; type: functional
Rattus norvegicus [10] = test: Reduction in albuminuria in STZ-induced Ren2 rat at 200 mg/kg/day after 24 hrs by radioimmunoassay; type: functional, organism-based
Rattus norvegicus [11] = test: Reduction in albuminuria in STZ-induced Ren2 rat at 400 mg/kg/day after 24 hrs by radioimmunoassay; type: functional, organism-based

Row | SMILES | inhibition at 100 µM [2] [%] | inhibition at 30 µM [3] [%] | other results
1 | COc1ccc(CCC(=O)Nc2ccccc2C(=O)O)cc1OC |  |  | inhibition (Rattus norvegicus [1]): inactive
2 | C#CCCCCOc1cc(/C=C/C(=O)Nc2ccccc2C(=O)O)ccc1OC | 100 | 95 | 
3 | CCC#CCOc1cc(/C=C/C(=O)Nc2ccccc2C(=O)O)ccc1OC | 100 | 90 | Activity [4]: Toxic; Activity [5]: Non-toxic
4 | COc1cc(/C=C/C(=O)Nc2ccccc2C(=O)O)ccc1OC1CCCCC1 |  |  | Activity 1097 [6]: Active; Activity 1097 [7]: Active
5 | CCCCC#CCCOc1ccc(/C=C/C(=O)Nc2ccccc2C(=O)O)cc1OC |  |  | Activity 1097 [6]: Active
6 | CCC#CCCOc1cc(/C=C/C(=O)Nc2ccccc2C(=O)O)ccc1OC | 100 | 100 | 
7 | COc1ccc(/C=C/C(=O)Nc2ccccc2C(N)=O)cc1OC | 35 |  | 
8 | COc1ccc(/C=C/C(=O)Nc2ccccc2C(=O)O)cc1OC [TRANILAST] | 70 | 40 | 
9 | C#CCCCCOc1ccc(/C=C/C(=O)Nc2ccccc2C(=O)O)cc1OC |  | 80 | Activity (Rattus norvegicus [8]): Active
10 | COc1cc(/C=C/C(=O)Nc2ccccc2C(=O)O)ccc1OC1CCCC1 |  | 100 | Activity (Rattus norvegicus [8]): Active; Activity [4]: Toxic; Activity [5]: Non-toxic
11 | COc1ccc(/C=C/C(=O)Nc2ccccc2C(=O)O)cc1O | 50 |  | 
12 | COc1cc(/C=C/C(=O)Nc2ccccc2C(=O)O)ccc1O | 50 |  | 
13 | C#CCOc1cc(/C=C/C(=O)Nc2ccccc2C(=O)O)ccc1OC | 90 | 60 | 
14 | C#CCCOc1ccc(/C=C/C(=O)Nc2ccccc2C(=O)O)cc1OC | 100 | 70 | 
15 | COc1cc(/C=C/C(=O)Nc2ccccc2C(=O)O)ccc1OC1CCCCCC1 |  |  | Activity 1097 [6]: Active; Activity 1097 [7]: Active
16 | O=C(/C=C/c1ccccc1)Nc1ccccc1C(=O)O |  |  | inhibition (Rattus norvegicus [1]): inactive

Row | SMILES | inhibition at 100 µM [2] [%] | inhibition at 30 µM [3] [%] | other results
17 | CCC#CCOc1ccc(/C=C/C(=O)Nc2ccccc2C(=O)O)cc1OC | 100 | 100 | Activity [4]: Toxic; Activity [5]: Non-toxic
18 | COc1cc(/C=C/C(=O)Nc2ccccc2C(=O)O)ccc1OC1CCC1 |  |  | Activity (Rattus norvegicus [8]): Active; inhibition at 10 µM [9]: 60%
19 | COc1cc(/C=C/C(=O)Nc2ccccc2C(=O)O)ccc1OC1CCCCCCC1 |  |  | Activity 1097 [6]: Active; Activity 1097 [7]: Active
20 | CCCCC#CCCOc1cc(/C=C/C(=O)Nc2ccccc2C(=O)O)ccc1OC |  |  | Activity 1097 [6]: Active; Activity 1097 [7]: Active
21 | CC#CCOc1cc(/C=C/C(=O)Nc2ccccc2C(=O)O)ccc1OC | 80 | 75 | 
22 | COc1ccc(/C=C/C(=O)Nc2ccccc2)cc1OC | 50 |  | 
23 | COc1cccc(/C=C/C(=O)Nc2ccccc2C(=O)O)c1 | 40 |  | 
24 | C#CCCOc1cc(/C=C/C(=O)Nc2ccccc2C(=O)O)ccc1OC |  | 65 | Activity (Rattus norvegicus [8]): Active
25 | CC#CCOc1ccc(/C=C/C(=O)Nc2ccccc2C(=O)O)cc1OC | 90 | 65 | 
26 | C#CCCCOc1cc(/C=C/C(=O)Nc2ccccc2C(=O)O)ccc1OC |  | 80 | Activity (Rattus norvegicus [8]): Active
27 | COc1ccc(/C=C/C(=O)Nc2ccccc2C(=O)O)cc1 |  |  | inhibition (Rattus norvegicus [1]): inactive
28 | CCC#CCCOc1ccc(/C=C/C(=O)Nc2ccccc2C(=O)O)cc1OC |  | 100 | Activity (Rattus norvegicus [8]): Active
29 | C#CCOc1ccc(/C=C/C(=O)Nc2ccccc2C(=O)O)cc1OC [ASENGEPRAST] | 80 | 55 | Activity (Rattus norvegicus [10]): Active; Activity (Rattus norvegicus [11]): Active
30 | C#CCCCOc1ccc(/C=C/C(=O)Nc2ccccc2C(=O)O)cc1OC | 100 | 75 | 
31 | O=C(/C=C/c1ccc(O)c(O)c1)Nc1ccccc1C(=O)O | 90 |  | 
